Measurements from PMC10726358 (Journal of Medicinal Chemistry, 2023).
Read-outs that look alike come from different tables or passages of the source.

Experiments:
BRD3 BD2 [1] = biological target: T1, BRD3 BD2 (Homo sapiens, UniProt Q15059); assay: BRD3 BD2 TR-FRET assay; format: binding
Method: (§1) The BRD4 BD1/BD2 TR-FRET assay had been used routinely for this optimization work, and in order to better understand the BET BD1 domain selectivity profile, 31 was tested in TR-FRET BRD2, BRD3, and BRDT assays.
(§2) All TR-FRET and hWB cytokine assays have been described previously.[54]

[2] = biological target: T2, Acetylcholinesterase (AChE) (Homo sapiens, UniProt P22303); assay: Cross screening: Acetylcholinesterase (AChE) antagonist; format: biochemical
T2 construct: purchased GSK enhanced cross-screening panel (in-house)

PBRM1 BD5 = biological target: T3, PBRM1 BD5 (Homo sapiens, UniProt Q86U86); assay: BROMOscan PBRM1 BD5; format: binding
T3 construct: PBRM1 BD5; purchased DiscoverX
Method: as §1
(§3) [52] BROMOscan recombinant protein binding assays were carried out at DiscoverX. (accessed April 4, 2023).

K1 = assay: Cross screening: K1 Agonist; format: biochemical
5-HT3 = biological target: T4, 5-HT3 (Homo sapiens, UniProt P46098); assay: Cross screening: 5-HT3 antagonist; format: biochemical
T4 construct: purchased GSK enhanced cross-screening panel (in-house)

Dopamine 2 (D2) = biological target: T5, Dopamine 2 (D2) (Homo sapiens, UniProt P14416); assay: Cross screening: Dopamine 2 (D2) Antagonist; format: biochemical
T5 construct: purchased GSK enhanced cross-screening panel (in-house)

PCAF = biological target: T6, PCAF (Homo sapiens, UniProt Q92831); assay: BROMOscan PCAF; format: binding
T6 construct: ≥2000-fold selectivity over all 20 non-BET bromodomains tested; purchased DiscoverX
Method: as §1, §3

SERT = biological target: T7, SERT (Homo sapiens, UniProt P31645); assay: Cross screening: SERT blocker; format: biochemical
T7 construct: purchased GSK enhanced cross-screening panel (in-house)

BRD7 = biological target: T8, BRD7 (Homo sapiens, UniProt Q9NPI1); assay: BROMOscan BRD7; format: binding
T8 construct: ≥2000-fold selectivity over all 20 non-BET bromodomains tested; purchased DiscoverX
Method: as §1, §3

NK1 = biological target: T9, NK1 (Homo sapiens, UniProt P25103); assay: Cross screening: NK1 antagonist; format: biochemical
T9 construct: purchased GSK enhanced cross-screening panel (in-house)

Cyclooxygenase 2 (COX-2) = biological target: T10, Cyclooxygenase 2 (COX-2) (Homo sapiens, UniProt P35354); assay: Cross screening: Cyclooxygenase 2 (COX-2) antagonist; format: biochemical
T10 construct: purchased GSK enhanced cross-screening panel (in-house)

PXR = PXR (Homo sapiens, UniProt O75469); assay: Cross screening: PXR Human Agonist
5-HT2C = biological target: T11, 5-HT2C (Homo sapiens, UniProt P28335); assay: Cross screening: 5-HT2C antagonist; format: biochemical
T11 construct: purchased GSK enhanced cross-screening panel (in-house)

BRPF1 = biological target: T12, BRPF1 (Homo sapiens, UniProt P55201); assay: BROMOscan BRPF1; format: binding
T12 construct: ≥2000-fold selectivity over all 20 non-BET bromodomains tested; purchased DiscoverX
Method: as §1, §3

5-HT2A = biological target: T13, 5-HT2A (Homo sapiens, UniProt P28223); assay: Cross screening: 5-HT2A Agonist; format: biochemical
T13 construct: purchased GSK enhanced cross-screening panel (in-house)

hERG = hERG (Homo sapiens, UniProt Q12809); assay: Cross screening: hERG blocker
5-HT2B = biological target: T14, 5-HT2B (Homo sapiens, UniProt P41595); assay: Cross screening: 5-HT2B Agonist; format: biochemical
T14 construct: purchased GSK enhanced cross-screening panel (in-house)

BRD8 BD2 = biological target: T15, BRD8 BD2 (Homo sapiens, UniProt Q9H0E9); assay: BROMOscan BRD8 BD2; format: binding
T15 construct: BRD8 BD2; purchased DiscoverX
Method: as §1, §3

D1 = biological target: T16, D1 (Homo sapiens, UniProt P21728); assay: Cross screening: D1 antagonist; format: biochemical
T16 construct: purchased GSK enhanced cross-screening panel (in-house)

Alpha 1 nAChR = biological target: T17, Alpha 1 nAChR (Homo sapiens, UniProt P02708+P07510+Q07001); assay: Cross screening: Alpha 1 nAChR Agonist; format: biochemical
T17 construct: purchased GSK enhanced cross-screening panel (in-house)

MCP-1 = assay: LPS-stimulated human whole blood (hWB) MCP-1 release assay; format: cell-based
From the text: The utility of a chemical probe in target validation is directly related to its quality, with important publications detailing requirements to aid researchers.[36]−[38] […] It was accepted that selectivity would be judged initially through a mutant BRD4 TR-FRET assay and would likely shift depending on the protein construct and assay format. […] Previous studies have shown that BET BD1 inhibition is sufficient to inhibit in vitro production of MCP-1 in LPS-stimulated hWB and, as such, served as a relevant measure of cellular target engagement and, concomitantly, proof of cellular permeability.[12],[39] Selectivity over other human bromodomains outside of the BET family, known collectively as non-BET bromodomains, was also required,[40] with a ≥ 100-fold selectivity window targeted. To ensure the molecules remained within developable chemical space, a target property forecast index (PFI) as defined by chromLogDpH7.4 + number of aromatic rings ≤6 was set.[41]
To understand cellular target engagement, 21 was tested in an LPS-stimulated hWB assay measuring inhibition of the inflammatory mediator MCP-1 secretion.
as §2

[3] = tested on: 12 multiplex human primary-cell-based assays; assay: BioMAP Diversity PLUS platform
Method: The X-axis lists the quantitative protein-based biomarker readouts measured in each system. The Y-axis represents a log-transformed ratio of the biomarker readouts for the drug-treated sample (n = 1) over vehicle controls (n ≥ 6). […] Biomarker key activities are described as modulated if these activities increase in some systems but decrease in others.
31 was added 1 h before stimulation of the cells and was present during the entire incubation period of the assays.

BRD2 BD2 = biological target: T18, BRD2 BD2 (Homo sapiens, UniProt P25440); assay: BROMOscan BRD2 BD2; format: binding
T18 construct: BRD2 BD2; purchased DiscoverX
Method: as §1, §3

BRD1 = biological target: T19, BRD1 (Homo sapiens, UniProt O95696); assay: BROMOscan BRD1; format: binding
T19 construct: ≥2000-fold selectivity over all 20 non-BET bromodomains tested; purchased DiscoverX
Method: as §1, §3

EP300 = biological target: T20, EP300 (Homo sapiens, UniProt Q09472); assay: BROMOscan EP300; format: binding
T20 construct: The broader non-BET bromodomain selectivity was also determined in the BROMOscan assay, with the closest off-target being EP300; purchased DiscoverX
Method: as §1, §3

BRD3 BD2 [4] = biological target: T1, BRD3 BD2; assay: BROMOscan BRD3 BD2; format: binding
Method: as §1, §3

BRD4 BD1 = biological target: T21, BRD4 BD1 (Homo sapiens, UniProt O60885); assay: BROMOscan BRD4 BD1; format: binding
T21 construct: BRD4 BD1; purchased DiscoverX
Method: as §1, §3

BRD3 BD1 = biological target: T22, BRD3 BD1 (Homo sapiens, UniProt Q15059); assay: BROMOscan BRD3 BD1; format: binding
T22 construct: BRD3 BD1; purchased DiscoverX
Method: as §1, §3

5-HT1B = biological target: T23, 5-HT1B (Homo sapiens, UniProt P28222); assay: Cross screening: 5-HT1B Agonist; format: biochemical
T23 construct: purchased GSK enhanced cross-screening panel (in-house)
T23 sequence (P28222 whole entry): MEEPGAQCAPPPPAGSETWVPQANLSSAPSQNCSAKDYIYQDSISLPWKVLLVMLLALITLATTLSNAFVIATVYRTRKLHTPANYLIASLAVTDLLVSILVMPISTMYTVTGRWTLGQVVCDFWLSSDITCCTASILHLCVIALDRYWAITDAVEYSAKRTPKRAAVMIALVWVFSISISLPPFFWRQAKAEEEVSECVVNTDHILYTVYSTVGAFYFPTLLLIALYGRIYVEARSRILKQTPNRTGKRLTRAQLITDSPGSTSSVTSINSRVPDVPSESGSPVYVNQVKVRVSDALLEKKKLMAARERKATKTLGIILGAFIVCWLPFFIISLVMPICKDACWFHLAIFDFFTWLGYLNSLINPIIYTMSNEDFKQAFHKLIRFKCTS

T22 sequence (Q15059 34-140 limits assumed): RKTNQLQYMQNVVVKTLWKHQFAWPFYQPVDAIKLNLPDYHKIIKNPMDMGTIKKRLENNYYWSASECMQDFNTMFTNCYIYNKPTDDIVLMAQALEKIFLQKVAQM
T1 sequence (Q15059 306-415 limits assumed): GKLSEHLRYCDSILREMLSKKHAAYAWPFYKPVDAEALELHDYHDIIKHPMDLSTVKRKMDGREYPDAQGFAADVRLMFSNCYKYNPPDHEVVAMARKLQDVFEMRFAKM
T20 sequence (Q09472 1049-1156 limits assumed): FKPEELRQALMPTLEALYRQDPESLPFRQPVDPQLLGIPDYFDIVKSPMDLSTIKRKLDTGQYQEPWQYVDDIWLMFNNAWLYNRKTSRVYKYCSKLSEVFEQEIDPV
T2 sequence (P22303 32-614): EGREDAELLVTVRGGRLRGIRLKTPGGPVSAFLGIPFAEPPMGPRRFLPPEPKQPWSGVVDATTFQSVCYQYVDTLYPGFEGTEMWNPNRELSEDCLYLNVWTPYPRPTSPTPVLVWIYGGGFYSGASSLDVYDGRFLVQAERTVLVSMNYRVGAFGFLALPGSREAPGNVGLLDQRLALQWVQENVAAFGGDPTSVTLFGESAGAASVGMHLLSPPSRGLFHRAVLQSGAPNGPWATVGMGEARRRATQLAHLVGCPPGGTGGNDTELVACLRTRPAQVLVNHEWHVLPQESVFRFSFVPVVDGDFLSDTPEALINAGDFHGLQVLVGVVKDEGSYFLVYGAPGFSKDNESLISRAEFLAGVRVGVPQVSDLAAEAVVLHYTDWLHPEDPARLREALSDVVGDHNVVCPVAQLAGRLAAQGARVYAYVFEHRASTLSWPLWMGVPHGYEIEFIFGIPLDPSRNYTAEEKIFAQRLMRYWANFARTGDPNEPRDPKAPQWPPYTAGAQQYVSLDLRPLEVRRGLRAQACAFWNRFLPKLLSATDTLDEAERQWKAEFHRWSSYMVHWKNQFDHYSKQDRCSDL
T12 sequence (P55201 628-732 limits assumed): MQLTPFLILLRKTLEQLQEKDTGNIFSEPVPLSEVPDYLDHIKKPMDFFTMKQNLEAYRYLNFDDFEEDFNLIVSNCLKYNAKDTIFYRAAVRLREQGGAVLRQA
T9 sequence (P25103 whole entry): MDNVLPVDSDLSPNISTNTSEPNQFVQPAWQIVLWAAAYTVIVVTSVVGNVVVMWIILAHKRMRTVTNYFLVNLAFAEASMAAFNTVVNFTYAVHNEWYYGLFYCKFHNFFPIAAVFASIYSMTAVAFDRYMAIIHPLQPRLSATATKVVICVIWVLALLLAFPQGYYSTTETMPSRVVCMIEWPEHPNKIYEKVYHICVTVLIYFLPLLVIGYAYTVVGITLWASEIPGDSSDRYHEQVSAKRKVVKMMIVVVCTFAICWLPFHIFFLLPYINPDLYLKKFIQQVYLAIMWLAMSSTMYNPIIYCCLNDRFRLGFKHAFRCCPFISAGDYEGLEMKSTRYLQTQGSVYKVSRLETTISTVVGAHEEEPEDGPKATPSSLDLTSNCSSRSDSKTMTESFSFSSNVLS
T5 sequence (P14416 whole entry): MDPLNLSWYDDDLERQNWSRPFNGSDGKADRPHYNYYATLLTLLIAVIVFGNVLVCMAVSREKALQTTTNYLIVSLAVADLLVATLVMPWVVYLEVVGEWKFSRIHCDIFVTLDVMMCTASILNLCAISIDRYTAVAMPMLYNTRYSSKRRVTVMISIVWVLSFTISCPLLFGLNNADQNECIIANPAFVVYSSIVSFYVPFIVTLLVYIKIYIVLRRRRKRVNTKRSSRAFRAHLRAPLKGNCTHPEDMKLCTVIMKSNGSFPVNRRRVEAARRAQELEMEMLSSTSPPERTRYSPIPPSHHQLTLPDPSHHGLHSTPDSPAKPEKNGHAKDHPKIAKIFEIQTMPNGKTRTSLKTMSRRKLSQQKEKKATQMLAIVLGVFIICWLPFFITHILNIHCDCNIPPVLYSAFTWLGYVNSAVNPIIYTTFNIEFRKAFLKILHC
T3 sequence (Q86U86 653-763 limits assumed): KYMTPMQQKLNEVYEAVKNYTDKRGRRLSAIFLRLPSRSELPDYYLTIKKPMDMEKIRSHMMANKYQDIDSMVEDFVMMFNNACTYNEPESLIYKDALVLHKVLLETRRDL
T13 sequence (P28223 whole entry): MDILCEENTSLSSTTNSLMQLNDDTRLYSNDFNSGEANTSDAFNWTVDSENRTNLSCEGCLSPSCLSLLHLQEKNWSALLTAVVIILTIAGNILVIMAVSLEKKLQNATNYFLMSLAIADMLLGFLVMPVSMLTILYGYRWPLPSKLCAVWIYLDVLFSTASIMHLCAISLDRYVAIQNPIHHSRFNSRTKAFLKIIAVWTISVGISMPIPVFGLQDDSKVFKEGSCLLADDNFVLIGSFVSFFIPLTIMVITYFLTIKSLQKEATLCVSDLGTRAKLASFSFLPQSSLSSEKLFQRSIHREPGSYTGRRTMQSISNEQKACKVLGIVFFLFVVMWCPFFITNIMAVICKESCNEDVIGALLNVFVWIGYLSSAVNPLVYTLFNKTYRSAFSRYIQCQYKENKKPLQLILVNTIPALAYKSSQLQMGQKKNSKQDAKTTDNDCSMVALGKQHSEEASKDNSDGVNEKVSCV
T8 sequence (Q9NPI1 131-235 limits assumed): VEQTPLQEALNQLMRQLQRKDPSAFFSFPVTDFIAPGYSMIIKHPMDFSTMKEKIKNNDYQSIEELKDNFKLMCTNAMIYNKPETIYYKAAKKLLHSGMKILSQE
T6 sequence (Q92831 723-827 limits assumed): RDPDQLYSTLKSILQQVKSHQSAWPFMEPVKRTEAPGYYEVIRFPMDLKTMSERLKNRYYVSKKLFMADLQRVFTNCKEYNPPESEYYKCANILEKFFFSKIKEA
T15 sequence (Q9H0E9 1099-1207 limits assumed): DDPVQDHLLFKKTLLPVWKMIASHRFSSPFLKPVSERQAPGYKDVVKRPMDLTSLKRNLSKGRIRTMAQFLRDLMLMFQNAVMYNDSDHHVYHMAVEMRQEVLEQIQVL
T14 sequence (P41595 whole entry): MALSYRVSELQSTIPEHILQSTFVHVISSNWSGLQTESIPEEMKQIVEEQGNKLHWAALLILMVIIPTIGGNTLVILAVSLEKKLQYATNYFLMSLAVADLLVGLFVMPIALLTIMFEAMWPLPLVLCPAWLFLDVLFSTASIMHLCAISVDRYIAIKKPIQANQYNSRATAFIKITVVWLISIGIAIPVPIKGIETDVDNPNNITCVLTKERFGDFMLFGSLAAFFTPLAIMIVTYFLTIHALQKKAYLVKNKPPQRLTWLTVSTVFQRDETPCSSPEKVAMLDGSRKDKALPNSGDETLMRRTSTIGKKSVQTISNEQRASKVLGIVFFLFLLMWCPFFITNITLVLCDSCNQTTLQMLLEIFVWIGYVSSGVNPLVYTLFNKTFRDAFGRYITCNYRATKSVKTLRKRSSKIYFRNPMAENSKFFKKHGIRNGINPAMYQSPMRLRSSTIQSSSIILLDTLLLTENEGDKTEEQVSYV
T10 sequence (P35354 18-604): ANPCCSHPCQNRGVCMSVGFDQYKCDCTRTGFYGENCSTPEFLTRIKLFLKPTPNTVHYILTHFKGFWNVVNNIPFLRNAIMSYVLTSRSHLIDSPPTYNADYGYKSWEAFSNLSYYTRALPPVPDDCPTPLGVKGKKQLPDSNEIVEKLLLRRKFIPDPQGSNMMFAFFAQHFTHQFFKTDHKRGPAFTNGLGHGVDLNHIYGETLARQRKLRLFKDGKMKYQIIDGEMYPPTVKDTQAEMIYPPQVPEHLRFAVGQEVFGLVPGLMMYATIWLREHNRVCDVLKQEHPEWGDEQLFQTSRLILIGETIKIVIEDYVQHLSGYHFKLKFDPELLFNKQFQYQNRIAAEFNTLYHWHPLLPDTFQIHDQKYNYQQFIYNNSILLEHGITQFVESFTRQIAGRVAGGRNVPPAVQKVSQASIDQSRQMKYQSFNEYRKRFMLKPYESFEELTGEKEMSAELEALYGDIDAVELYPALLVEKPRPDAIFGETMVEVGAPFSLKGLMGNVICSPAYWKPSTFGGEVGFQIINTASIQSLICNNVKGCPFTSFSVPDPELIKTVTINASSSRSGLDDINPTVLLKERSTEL
T4 sequence (P46098 24-478): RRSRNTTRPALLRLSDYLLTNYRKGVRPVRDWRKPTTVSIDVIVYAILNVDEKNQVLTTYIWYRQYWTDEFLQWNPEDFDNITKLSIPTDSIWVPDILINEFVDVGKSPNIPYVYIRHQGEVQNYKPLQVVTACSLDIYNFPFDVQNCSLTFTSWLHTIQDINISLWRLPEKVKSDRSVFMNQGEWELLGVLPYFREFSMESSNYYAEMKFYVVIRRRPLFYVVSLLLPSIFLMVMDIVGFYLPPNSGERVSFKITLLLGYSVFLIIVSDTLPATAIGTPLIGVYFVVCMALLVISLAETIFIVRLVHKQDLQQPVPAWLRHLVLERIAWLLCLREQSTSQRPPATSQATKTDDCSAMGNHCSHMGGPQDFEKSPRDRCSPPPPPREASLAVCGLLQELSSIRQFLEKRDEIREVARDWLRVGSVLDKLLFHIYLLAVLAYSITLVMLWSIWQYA
T18 sequence (P25440 344-453 limits assumed): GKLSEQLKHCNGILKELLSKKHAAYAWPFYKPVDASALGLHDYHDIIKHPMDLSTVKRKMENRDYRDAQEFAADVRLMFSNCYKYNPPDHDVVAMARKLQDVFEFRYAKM

Cc1cc(-c2nc3ccccc3n2C[C@@H]2CCCN(C(=O)C3CCN(C(C)C)CC3)C2)cn(C)c1=O [Compound 31, (S)-5-(1-((1-(1-Isopropylpiperidine-4-carbonyl)piperidin-3-yl)methyl)-1H-benzo [d]imidazole-2-yl)-1,3-dimethylpyridin-2(1H)-one]
BRD3 BD2 TR-FRET pIC50 (BRD3 BD2 [1]): 5.1 | pXC50 Acetylcholinesterase (AChE) antagonist [2]: < 4.0 | Kd (PBRM1 BD5): > 31.6 µM | pXC50 K1 Agonist (K1): < 4.0 | pXC50 5-HT3 antagonist (5-HT3): < 4.3 | pXC50 Dopamine 2 (D2) Antagonist (Dopamine 2 (D2)): < 4.0 | Kd (PCAF): > 31.6 µM | pXC50 SERT blocker (SERT): < 4.0 | Kd (BRD7): > 31.6 µM | pXC50 NK1 antagonist (NK1): < 4.6 | pXC50 Cyclooxygenase 2 (COX-2) antagonist (Cyclooxygenase 2 (COX-2)): < 4.0 | pXC50 PXR Human Agonist (PXR): < 4.3 | pXC50 5-HT2C antagonist (5-HT2C): < 4.0 | Kd (BRPF1): 15.8 µM | pXC50 5-HT2A Agonist (5-HT2A): < 4.0 | pXC50 hERG blocker (hERG): < 4.3 | pXC50 5-HT2B Agonist (5-HT2B): < 4.0 | Kd (BRD8 BD2): > 31.6 µM | pXC50 D1 antagonist (D1): < 4.0 | pXC50 Alpha 1 nAChR Agonist (Alpha 1 nAChR): < 4.2 | IC50 (MCP-1; Homo sapiens, read-out: hWB MCP-1 IC50): 0.126 µM | IC50 (MCP-1; LPS-stimulated human whole blood, read-out: hWB MCP-1 pIC50 (converted)): 0.126 µM | BioMAP immune-modulatory biomarker levels ([3]; 10 μM to 160 nM, MCP-1, IL-8, IL-1, IL-10, M-CSF, IL-6): decreases | BioMAP antiproliferative effects ([3]; 10 μM to 160 nM, human primary T cells, coronary artery smooth muscle cells, endothelial cells, fibroblasts): antiproliferative effects | BioMAP cytotoxicity ([3]; 10 μM, […], 630 nM, 160 nM): No cytotoxicity was observed | BROMOscan pKd BRD2 BD2 (BRD2 BD2): 5.5 | Kd (BRD1): > 31.6 µM | BROMOscan pKd EP300 (EP300): 5.0 | fold selectivity over EP300 (EP300; BROMOscan, compared to BRD4 BD1 pKd 8.1): 1200 fold | BROMOscan pKd BRD3 BD2 (BRD3 BD2 [4]): 5.8 | BROMOscan pKd BRD4 BD1 (BRD4 BD1): 8.1 | fold selectivity BRD4 BD1 over BD2 (BRD4 BD1; BROMOscan): 316 fold | BROMOscan pKd BRD3 BD1 (BRD3 BD1): 8.4 | fold selectivity BRD3 BD1 over BD2 (BRD3 BD1; BROMOscan): 400 fold | pXC50 5-HT1B Agonist (5-HT1B): < 4.0
